# Test results: patent US10703756B2, “Pyrrolo[2,3-D]pyrimidinyl, pyrrolo[2,3-B]pyrazinyl, pyrrolo[2,3-B]pyridinyl acrylamides and epoxides thereof” (Pfizer Inc., priority 2015, dated 2020)
# Experiments:
# JAK3 enzyme [1] = target: T1, JAK3 enzyme (Homo sapiens, UniProt P52333); assay: JAK Caliper Enzyme Assay at 4 μM ATP; assay type: biochemical
# T1 sequence (P52333 1-1124): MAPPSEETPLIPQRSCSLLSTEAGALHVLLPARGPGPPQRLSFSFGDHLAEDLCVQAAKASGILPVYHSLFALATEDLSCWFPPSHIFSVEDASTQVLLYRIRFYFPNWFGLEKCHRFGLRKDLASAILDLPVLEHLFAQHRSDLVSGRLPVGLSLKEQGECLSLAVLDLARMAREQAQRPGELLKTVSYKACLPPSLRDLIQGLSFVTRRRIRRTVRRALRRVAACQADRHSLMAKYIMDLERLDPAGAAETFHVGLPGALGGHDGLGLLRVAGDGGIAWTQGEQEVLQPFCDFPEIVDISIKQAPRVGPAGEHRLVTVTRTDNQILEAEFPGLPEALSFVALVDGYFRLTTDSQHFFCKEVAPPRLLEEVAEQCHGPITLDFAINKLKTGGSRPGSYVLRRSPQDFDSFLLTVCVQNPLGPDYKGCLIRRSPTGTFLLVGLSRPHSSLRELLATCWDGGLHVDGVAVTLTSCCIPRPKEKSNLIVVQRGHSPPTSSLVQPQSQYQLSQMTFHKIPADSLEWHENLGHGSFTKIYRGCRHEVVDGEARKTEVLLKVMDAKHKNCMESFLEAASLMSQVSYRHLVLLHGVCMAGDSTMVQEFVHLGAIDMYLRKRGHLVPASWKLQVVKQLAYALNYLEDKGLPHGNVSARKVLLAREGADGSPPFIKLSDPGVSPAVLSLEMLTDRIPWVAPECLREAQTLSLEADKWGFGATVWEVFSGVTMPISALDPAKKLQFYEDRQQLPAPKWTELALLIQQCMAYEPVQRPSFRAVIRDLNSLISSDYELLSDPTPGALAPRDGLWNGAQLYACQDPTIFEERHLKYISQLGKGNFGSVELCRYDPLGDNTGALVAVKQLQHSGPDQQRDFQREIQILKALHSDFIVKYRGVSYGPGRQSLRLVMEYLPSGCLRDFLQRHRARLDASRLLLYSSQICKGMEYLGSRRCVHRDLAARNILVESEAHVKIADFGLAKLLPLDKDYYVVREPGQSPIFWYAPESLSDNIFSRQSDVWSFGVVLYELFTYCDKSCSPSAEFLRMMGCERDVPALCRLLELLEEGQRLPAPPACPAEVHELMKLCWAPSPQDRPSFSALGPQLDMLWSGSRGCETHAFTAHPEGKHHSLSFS
# Method in brief: (§1)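 Test compounds were diluted in DMSO as an 11-point half-log series from a 600 μM top concentration (DMSO series, not final assay level). Enzyme amount and incubation time were set per enzyme prep to reach 20%-30% phosphorylation. Phosphorylated and unphosphorylated peptide were resolved by microfluidic separation.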
# [2] = tested on: IL-15 induced P-STAT5 in human PBMC; assay: PBMC IL-15 Induced P-STAT5; assay type: cell-based; details: human PBMC, IL-15 final 41 ng/mL; read-out: PBMC IL15_pSTAT5_IC50
# Method in brief: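 Thawed human PBMC, rested in human plasma, were preincubated 15 min at 37 °C with compound (0.2% DMSO), then stimulated 15 min with IL-15 at 41 ng/mL final. After paraformaldehyde fixation and methanol permeabilisation, Alexa Fluor 647 anti-STAT5 staining overnight at 4 °C was analysed by flow cytometry on total lymphocytes.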
# JAK3 enzyme [3] = target: T1, JAK3 enzyme; assay: JAK Caliper Enzyme Assay at 1 mM ATP; assay type: biochemical
# Method in brief: as §1
# [4] = tested on: IL-15 induced STAT5 phosphorylation in human whole blood lymphocytes; assay: HWB IL-15 Induced STAT5 Phosphorylation Assay; assay type: cell-based; details: Lymphocyte, IL-15 final 50 ng/ml, read-out: HWB_IL15 pSTAT5 IC50
# Experimental: HWB IL-15 Induced STAT5 Phosphorylation Assay
# After serial dilution of the test compounds 1:2 in DMSO at desired concentration (500× of final), the compounds were further diluted in PBS (by adding 4 μL compound/DMSO in 96 μL PBS, [DMSO]=4%, 20× final). To 96-well polypropylene plates were added 90 μl HWB (heparin treated Human Whole Blood)/well, followed by 5 μl/well 4% DMSO in D-PBS or various concentrations of 20× inhibitor in 4% DMSO in D-PBS (w/o Ca^+2 or Mg^+2) to give 1× in 0.2% DMSO. After mixing and incubating for 45 minutes at 37° C., 5 μl D-PBS (unstimulated control) or 20× stocks of 5 μl human IL-15 (final concentration is 50 ng/ml) were added, and mixed three times. After incubating 15 minutes at 37° C., 1× Lyse/Fix Buffer (BD Phosflow 5× Lyse/Fix Buffer) was added to all wells at 1000 μl/well, then incubated for 20 minutes at 37° C. and spun 5 mins at 1200 rpm. After washing in 1000 μl FACS buffer 1× and spinning for 5 mins at 1200 rpm, 400 μl ice cold Perm Buffer III were added to each well. After mixing gently (1-2×) and incubating on ice for 30 minutes, spinning for 5 mins at 1200 rpm without interruption, and washing 1× in cold […] FACS buffer (D-PBS containing 0.1% BSA and 0.1% sodium azide) 250 μl/well of the desired AlexaFluor647-conjugated anti-phospho STATS antibody at 1:125 dilution in FACS buffer was added. Following incubating at 4° C. over night, all the samples were transferred to 96-well polypropylene U-bottom plate, and checked by flow cytometry gated on total lymphocytes.
# [5] = Stability of JAK3 Covalent Inhibitors in Human Whole Blood; assay type: in vitro ADME; details: 1 μM test compound, 37° C., 180 min incubation; for half-life at 1 μM: both sexes, read-out: Human blood stability t1/2
# Method in brief: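 Compound at 1 μM final incubated in duplicate at 37° C for 180 min in fresh K2-EDTA whole blood […]. Samples quenched in acetonitrile with internal standard; LC-MS/MS peak area ratios gave % parent remaining over time.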
smiles,measurement,setting,value
"C=CC(=O)N1CCN(c2cnc3[nH]cc(C(=O)NC4CCCOC4)c3n2)CC1(C)C (racemic) [Example 149, Racemic-2-(4-acryloyl-3,3-dimethylpiperazin-1-yl)-N-(tetrahydro-2H-pyran-3-yl)-5H-pyrrolo[2,3-b]pyrazine-7-carboxamide]",IC50,JAK3 enzyme [1],0.565 nM
same,IC50,[2],163 nM
same,IC50,JAK3 enzyme [3],134 nM
same,IC50,[4],4240 nM
"C=CC(=O)N1CC[C@@H](Nc2cnc3[nH]cc(C(=O)NCC(C)CC(F)(F)F)c3n2)[C@@H](OC)C1 (mixture of isomers) [Example 269, Racemic-2-{[(3S,4R)-1-acryloyl-3-methoxypiperidin-4-yl]amino}-N-(4,4,4-trifluoro-2-methylbutyl)-5H-pyrrolo[2,3-b]pyrazine-7-carboxamide]",IC50,JAK3 enzyme [1],0.888 nM
same,IC50,[2],220 nM
same,IC50,JAK3 enzyme [3],82 nM
same,IC50,[4],1390 nM
"C=CC(=O)N1CCN(c2cnc3[nH]cc(C(=O)NCC(C)CC(F)(F)F)c3n2)CC1 (racemic) [Example 279, Racemic-2-(4-acryloylpiperazin-1-yl)-N-(4,4,4-trifluoro-2-methylbutyl)-5H-pyrrolo[2,3-b]pyrazine-7-carboxamide]",IC50,JAK3 enzyme [1],0.343 nM
same,IC50,[2],107 nM
same,IC50,JAK3 enzyme [3],31 nM
same,IC50,[4],765 nM
"C=CC(=O)N1CCN(c2cnc3[nH]cc(C(=O)NC4CCCC4)c3n2)CC1 (racemic) [Example 292, Racemic-2-(4-acryloylpiperazin-1-yl)-N-cyclopentyl-5H-pyrrolo[2,3-b]pyrazine-7-carboxamide]",IC50,JAK3 enzyme [1],0.315 nM
same,IC50,[2],27.7 nM
same,IC50,JAK3 enzyme [3],17 nM
same,IC50,[4],841 nM
"C=CC(=O)N1CC[C@@H](Nc2cnc3[nH]cc(C(=O)NC4CCCC4)c3n2)[C@@H](OC)C1 (racemic) [Example 299, Racemic-2-{[(3S,4R)-1-acryloyl-3-methoxypiperidin-4-yl]amino}-N-cyclopentyl-5H-pyrrolo[2,3-b]pyrazine-7-carboxamide]",IC50,JAK3 enzyme [1],1.21 nM
same,IC50,[2],305 nM
same,IC50,JAK3 enzyme [3],57 nM
same,IC50,[4],913 nM
C=CC(=O)N1CCC(Oc2cnc3[nH]cc(-c4ncnn4C(C)C)c3n2)CC1 [Example 123],IC50,JAK3 enzyme [1],7.65 nM
same,half-life at 1 μM,[5],2.45 h
same,IC50,[2],3040 nM
same,IC50,JAK3 enzyme [3],1100 nM
"C=CC(=O)N1CCC(Oc2cnc3[nH]cc(-c4ncn(C(C)C)n4)c3n2)CC1 [Example 124, 1-[4-({7-[1-(Propan-2-yl)-1H-1,2,4-triazol-3-yl]-5H-pyrrolo[2,3-b]pyrazin-2-yl}oxy)piperidin-1-yl]prop-2-en-1-one]",IC50,JAK3 enzyme [1],5.89 nM
same,half-life at 1 μM,[5],4.86 h
same,IC50,[2],2430 nM
same,IC50,JAK3 enzyme [3],1100 nM
C=CC(=O)N1C[C@H](Nc2ncnc3[nH]ccc23)C[C@H](O)[C@@H]1C [Example 133],IC50,JAK3 enzyme [1],1.11 nM
same,Human blood stability t1/2,[5],3.97 h
same,IC50,[2],302 nM
same,IC50,JAK3 enzyme [3],76 nM
"C=CC(=O)N1CCN(c2cnc3[nH]cc(C(=O)N[C@@H]4COC[C@@H]4C4CC4)c3n2)CC1(C)C [Example 139, 2-(4-acryloyl-3,3-dimethylpiperazin-1-yl)-N-[(3S,4R)-4-cyclopropyltetrahydrofuran-3-yl]-5H-pyrrolo[2,3-b]pyrazine-7-carboxamide]",IC50,JAK3 enzyme [1],1.57 nM
same,half-life at 1 μM,[5],> 6 h
same,IC50,[2],711 nM
same,IC50,JAK3 enzyme [3],109 nM
"C=CC(=O)N1CC[C@H](Nc2cnc3[nH]cc(C(=O)NCC(F)(F)F)c3n2)C1 [Example 231, 2-{[(3S)-1-acryloylpyrrolidin-3-yl]amino}-N-(2,2,2-trifluoroethyl)-5H-pyrrolo[2,3-b]pyrazine-7-carboxamide]",IC50,JAK3 enzyme [1],0.322 nM
same,half-life at 1 μM,[5],5.35 h
same,IC50,[2],353 nM
same,IC50,JAK3 enzyme [3],85 nM
"C=CC(=O)N1CC[C@H](Nc2cnc3[nH]cc(C(=O)NCCC(F)(F)F)c3n2)C1 [Example 235, 2-{[(3S)-1-acryloylpyrrolidin-3-yl]amino}-N-(3,3,3-trifluoropropyl)-5H-pyrrolo[2,3-b]pyrazine-7-carboxamide]",IC50,JAK3 enzyme [1],0.304 nM
same,half-life at 1 μM,[5],5.78 h
same,IC50,[2],208 nM
same,IC50,JAK3 enzyme [3],37 nM
